Each block holds one molecule with its values, some of them ahead of it.
How the values were obtained:
[1] = target: T1, Platelet-derived growth factor receptor beta (Homo sapiens, UniProt P09619); assay: Inhibition of PDGFRbeta (unknown origin) by caliper mobility shift assay
[2] = target: T1, Platelet-derived growth factor receptor beta; assay: Inhibition of PDGFRbeta (unknown origin) at 100 nM by caliper mobility shift assay relative to control
U2OS = assay: Antiproliferative activity against human U2OS cells assessed as reduction in cell viability incubated for 48 hrs by MTT assay
SAOS-2 = assay: Antiproliferative activity against human SAOS-2 cells assessed as reduction in cell viability incubated for 48 hrs by MTT assay; conditions: SAOS-2, 48 h
HOS-TE85 = assay: Antiproliferative activity against human MNNG/HOS cells assessed as reduction in cell viability incubated for 48 hrs by MTT assay; conditions: HOS-TE85, 48 h
MG-63 = assay: Antiproliferative activity against human MG-63 cells assessed as reduction in cell viability incubated for 48 hrs by MTT assay; conditions: MG-63, 48 h
[3] = target: Platelet-derived growth factor receptor alpha (Homo sapiens, UniProt P16234); assay: Inhibition of PDGFRalpha (unknown origin) by caliper mobility shift assay
CYP2C19 = assay: Inhibition of CYP2C19 in rat liver microsomes at 100 uM using voriconazole as substrate preincubated for 5 min followed by NADPH addition and measured after 40 mins by UHPLC-MS/MS analysis; format: ADME, Microsome; conditions: probe voriconazole, time 45 min
CYP2C9 = assay: Inhibition of CYP2C9 in rat liver microsomes at 100 uM using diclofenac as substrate preincubated for 5 min followed by NADPH addition and measured after 40 mins by UHPLC-MS/MS analysis; format: ADME, Microsome; conditions: probe diclofenac, time 45 min
[4] = Half life in Sprague-Dawley rat at 20 mg/kg, po measured at 0.033 to 48 hrs by UHPLC-MS/MS analysis; format: ADME, organism-based; conditions: in vivo, time 0.033-48 hrs
[5] = Toxicity in BALB/c nude mouse xenograted with human MNNG/HOS cells assessed as morphological change in liver at 15 to 30 mg/kg/day, po for 14 days by hematoxylin and eosin staining method; format: organism-based, HOS-TE85; conditions: in vivo, 336 h, dose 15-30 mg/kg/day, time 14 day
[6] = Cmax in Sprague-Dawley rat at 4 mg/kg, ip measured at 0.08 to 8 hrs by UHPLC-MS/MS analysis; format: ADME, organism-based; parameters: time lower 0.08 hrs, dose 4 mg/kg, time upper 8 hrs, route ip; conditions: in vivo
[7] = Toxicity in BALB/c nude mouse xenograted with human MNNG/HOS cells assessed as effect on kidney weight at 15 to 30 mg/kg/day, po dosed for 14 days; format: organism-based, HOS-TE85; conditions: in vivo, 336 h, dose 15-30 mg/kg/day, time 14 day
[8] = Toxicity in BALB/c nude mouse xenograted with human MNNG/HOS cells assessed as effect on lung weight at 15 to 30 mg/kg/day, po dosed for 14 days; format: organism-based, HOS-TE85; conditions: in vivo, 336 h, dose 15-30 mg/kg/day, time 14 day
[9] = Toxicity in BALB/c nude mouse xenograted with human MNNG/HOS cells assessed as effect on liver weight at 15 to 30 mg/kg/day, po dosed for 14 days; format: organism-based, HOS-TE85; conditions: in vivo, 336 h, dose 15-30 mg/kg/day, time 14 day
[10] = Toxicity in C57/BL6 mouse assessed as change in spleen weight at 40 to 80 mg/kg/day, po dosed for 10 days; format: organism-based; conditions: in vivo, 240 h, dose 40-80 mg/kg/day, time 10 day
[11] = Toxicity in C57/BL6 mouse assessed as change in heart weight at 40 to 80 mg/kg/day, po dosed for 10 days; format: organism-based; conditions: in vivo, 240 h, dose 40-80 mg/kg/day, time 10 day
[12] = Toxicity in BALB/c nude mouse xenograted with human MNNG/HOS cells assessed as effect on body weight at 15 to 30 mg/kg/day, po dosed for 14 days; format: organism-based, HOS-TE85; conditions: in vivo, 336 h, dose 15-30 mg/kg/day, time 14 day
[13] = Toxicity in BALB/c nude mouse xenograted with human MNNG/HOS cells assessed as effect on spleen weight at 15 to 30 mg/kg/day, po dosed for 14 days; format: organism-based, HOS-TE85; conditions: in vivo, 336 h, dose 15-30 mg/kg/day, time 14 day
[14] = AUC(0 to infinity) in Sprague-Dawley rat at 4 mg/kg, ip measured at 0.08 to 8 hrs by UHPLC-MS/MS analysis; format: ADME, organism-based; parameters: dose 4 mg/kg, time 0.08-8 hrs, route ip; conditions: in vivo
[15] = Toxicity in BALB/c nude mouse xenograted with human MNNG/HOS cells assessed as effect on heart weight at 15 to 30 mg/kg/day, po dosed for 14 days; format: organism-based, HOS-TE85; conditions: in vivo, 336 h, dose 15-30 mg/kg/day, time 14 day
[16] = Toxicity in BALB/c nude mouse xenograted with human MNNG/HOS cells assessed as morphological change in kidney at 15 to 30 mg/kg/day, po for 14 days by hematoxylin and eosin staining method; format: organism-based, HOS-TE85; conditions: in vivo, 336 h, dose 15-30 mg/kg/day, time 14 day
[17] = Toxicity in C57/BL6 mouse assessed as change in liver weight at 40 to 80 mg/kg/day, po dosed for 10 days; format: organism-based; conditions: in vivo, 240 h, dose 40-80 mg/kg/day, time 10 day
[18] = Toxicity in C57/BL6 mouse assessed as change in kidney weight at 40 to 80 mg/kg/day, po dosed for 10 days; format: organism-based; conditions: in vivo, 240 h, dose 40-80 mg/kg/day, time 10 day
[19] = Toxicity in C57/BL6 mouse assessed as tolerability at 40 to 80 mg/kg/day, po dosed for 10 days; format: organism-based; conditions: in vivo, 240 h, dose 40-80 mg/kg/day, time 10 day
[20] = Cmax in Sprague-Dawley rat at 20 mg/kg, po measured at 0.033 to 48 hrs by UHPLC-MS/MS analysis; format: ADME, organism-based; parameters: dose 20 mg/kg, time upper 48 hrs, time lower 0.033 hrs, route po; conditions: in vivo
[21] = Toxicity in C57/BL6 mouse assessed as histopathological change in kidney at 40 to 80 mg/kg/day, po dosed for 10 days by Hematoxylin and eosin based staining analysis; format: organism-based; conditions: in vivo, 240 h, dose 40-80 mg/kg/day, time 10 day
[22] = Hepatotoxicity in C57/BL6 mouse assessed as effect on aspartate aminotransferase level at 40 to 80 mg/kg/day, po dosed for 10 days by liver function test; format: toxicity, organism-based; conditions: in vivo, 240 h, dose 40-80 mg/kg/day, time 10 day
[23] = Toxicity in C57/BL6 mouse assessed as histopathological change in liver at 40 to 80 mg/kg/day, po dosed for 10 days by Hematoxylin and eosin based staining analysis; format: organism-based; conditions: in vivo, 240 h, dose 40-80 mg/kg/day, time 10 day
[24] = Hepatotoxicity in C57/BL6 mouse assessed as effect on alanine aminotransferase level at 40 to 80 mg/kg/day, po dosed for 10 days by liver function test; format: toxicity, organism-based; conditions: in vivo, 240 h, dose 40-80 mg/kg/day, time 10 day
[25] = Oral bioavailability in Sprague-Dawley rat at 20 mg/kg measured at 0.033 to 48 hrs by UHPLC-MS/MS analysis; format: ADME, organism-based; conditions: in vivo, time 0.033-48 hrs
[26] = Half life in Sprague-Dawley rat at 4 mg/kg, ip measured at 0.08 to 8 hrs by UHPLC-MS/MS analysis; format: ADME, organism-based; conditions: in vivo, time 0.08-8 hrs
[27] = AUC(0 to infinity) in Sprague-Dawley rat at 20 mg/kg, po measured at 0.033 to 48 hrs by UHPLC-MS/MS analysis; format: ADME, organism-based; parameters: dose 20 mg/kg, time 0.033-48 hrs, route po; conditions: in vivo
[28] = Toxicity in C57/BL6 mouse assessed as change in body weight at 40 to 80 mg/kg/day, po dosed for 10 days; format: organism-based; conditions: in vivo, 240 h, dose 40-80 mg/kg/day, time 10 day
[29] = Toxicity in C57/BL6 mouse assessed as change in lung weight at 40 to 80 mg/kg/day, po dosed for 10 days; format: organism-based; conditions: in vivo, 240 h, dose 40-80 mg/kg/day, time 10 day
[30] = Nephrotoxicity in C57/BL6 mouse assessed as effect on creatinine level at 40 to 80 mg/kg/day, po dosed for 10 days by kidney function test; format: toxicity, organism-based; conditions: in vivo, 240 h, dose 40-80 mg/kg/day, time 10 day

T1 sequence (P09619 whole entry): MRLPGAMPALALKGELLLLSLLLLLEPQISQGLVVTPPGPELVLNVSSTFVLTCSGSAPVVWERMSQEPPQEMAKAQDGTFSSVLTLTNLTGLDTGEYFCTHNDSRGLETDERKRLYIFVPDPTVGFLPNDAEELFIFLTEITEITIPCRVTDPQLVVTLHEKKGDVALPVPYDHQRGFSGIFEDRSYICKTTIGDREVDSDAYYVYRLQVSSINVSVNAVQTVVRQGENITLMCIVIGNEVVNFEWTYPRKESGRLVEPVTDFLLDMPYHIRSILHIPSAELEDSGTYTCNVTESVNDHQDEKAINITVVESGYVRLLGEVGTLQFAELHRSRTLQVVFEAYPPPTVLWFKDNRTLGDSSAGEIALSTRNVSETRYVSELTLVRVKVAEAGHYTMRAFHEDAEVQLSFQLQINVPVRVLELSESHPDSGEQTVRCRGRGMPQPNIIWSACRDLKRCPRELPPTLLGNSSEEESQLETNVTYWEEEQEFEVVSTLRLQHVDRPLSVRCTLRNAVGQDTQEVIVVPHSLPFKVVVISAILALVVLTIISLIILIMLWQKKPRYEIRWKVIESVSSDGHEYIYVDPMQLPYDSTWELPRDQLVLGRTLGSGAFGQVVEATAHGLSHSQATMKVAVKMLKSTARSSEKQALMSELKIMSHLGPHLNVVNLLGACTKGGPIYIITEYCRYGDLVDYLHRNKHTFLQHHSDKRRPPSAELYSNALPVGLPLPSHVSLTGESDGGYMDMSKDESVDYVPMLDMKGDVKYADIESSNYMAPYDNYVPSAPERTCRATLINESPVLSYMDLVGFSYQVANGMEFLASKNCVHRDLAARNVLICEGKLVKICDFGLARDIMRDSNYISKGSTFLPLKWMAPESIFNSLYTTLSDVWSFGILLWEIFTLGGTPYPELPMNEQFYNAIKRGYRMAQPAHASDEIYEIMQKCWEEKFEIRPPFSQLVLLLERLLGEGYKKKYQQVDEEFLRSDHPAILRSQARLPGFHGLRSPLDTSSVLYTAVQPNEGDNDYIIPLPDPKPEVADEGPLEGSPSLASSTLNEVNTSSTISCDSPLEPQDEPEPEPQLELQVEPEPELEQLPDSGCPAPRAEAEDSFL
Platelet-derived growth factor receptor alpha, sequence (P16234 whole entry): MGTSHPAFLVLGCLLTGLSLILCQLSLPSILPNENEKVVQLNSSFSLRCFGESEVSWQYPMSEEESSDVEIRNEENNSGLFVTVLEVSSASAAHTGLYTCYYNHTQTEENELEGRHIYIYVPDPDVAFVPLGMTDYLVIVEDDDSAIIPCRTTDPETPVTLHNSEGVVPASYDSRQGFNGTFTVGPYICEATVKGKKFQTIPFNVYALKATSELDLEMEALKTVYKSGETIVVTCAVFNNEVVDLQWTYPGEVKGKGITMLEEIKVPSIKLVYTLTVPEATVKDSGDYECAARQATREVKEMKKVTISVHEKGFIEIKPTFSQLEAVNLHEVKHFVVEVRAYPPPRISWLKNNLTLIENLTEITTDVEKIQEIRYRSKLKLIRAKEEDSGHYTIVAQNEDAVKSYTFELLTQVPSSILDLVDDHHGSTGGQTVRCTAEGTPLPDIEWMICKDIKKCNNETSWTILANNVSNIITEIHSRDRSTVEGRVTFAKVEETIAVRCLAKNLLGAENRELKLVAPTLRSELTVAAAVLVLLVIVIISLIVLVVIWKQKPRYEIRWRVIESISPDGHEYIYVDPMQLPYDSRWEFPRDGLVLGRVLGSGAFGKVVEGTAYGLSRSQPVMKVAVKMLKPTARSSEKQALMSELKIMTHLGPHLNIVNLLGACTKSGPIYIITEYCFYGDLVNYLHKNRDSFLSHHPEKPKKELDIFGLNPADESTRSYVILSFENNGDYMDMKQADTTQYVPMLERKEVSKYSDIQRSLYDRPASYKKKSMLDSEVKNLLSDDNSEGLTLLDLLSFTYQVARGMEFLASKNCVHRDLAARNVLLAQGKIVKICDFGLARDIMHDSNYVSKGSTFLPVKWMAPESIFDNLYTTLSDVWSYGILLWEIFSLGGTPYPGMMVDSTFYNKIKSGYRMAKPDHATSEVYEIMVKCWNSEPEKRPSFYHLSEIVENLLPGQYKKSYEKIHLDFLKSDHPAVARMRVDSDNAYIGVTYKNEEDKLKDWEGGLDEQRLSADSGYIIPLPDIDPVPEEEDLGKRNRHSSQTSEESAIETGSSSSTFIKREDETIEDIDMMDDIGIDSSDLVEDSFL

SMILES: Cc1cnc(Nc2ccc(C(=O)N3CCN(C)CC3)cc2)nc1Nc1ccc2cn[nH]c2c1
IC50 [1]: 0.0477 µM

SMILES: CCOC(=O)c1cnc(Nc2ccc(N3CCN(C)CC3)cc2)nc1Nc1ccc2cn[nH]c2c1
inhibition [2]: 30.7%

SMILES: CCN1CCN(c2ccc(Nc3ncc(C)c(Nc4ccc5cn[nH]c5c4)n3)cc2)CC1
IC50 (U2OS): 0.55 µM | IC50 (SAOS-2): 0.95 µM | IC50 (HOS-TE85): 1.4 µM | IC50 [1]: 0.0076 µM | IC50 (MG-63): 0.96 µM

SMILES: Cc1cnc(Nc2ccc(N3CCN(C)CC3)cc2)nc1Nc1ccc2[nH]ncc2c1
inhibition [2]: 84.1%

SMILES: COc1cnc(Nc2ccc(N3CCN(C)CC3)cc2)nc1Nc1ccc2cn[nH]c2c1
inhibition [2]: 55%

SMILES: Cc1cnc(Nc2ccc(N3CCN(C)CC3)cc2)nc1Nc1ccc2cn[nH]c2c1
inhibition [2]: 99.6%

SMILES: COc1cc(N2CCC(N3CCN(C)CC3)CC2)ccc1Nc1ncc(C)c(Nc2ccc3cn[nH]c3c2)n1
IC50 [1]: 0.0556 µM

SMILES: COc1cc(N2CCN(C)CC2)ccc1Nc1ncc(C)c(Nc2ccc3cn[nH]c3c2)n1
IC50 [1]: 0.0441 µM

SMILES: CN1CCN(c2ccc(Nc3ncc(Cl)c(Nc4ccc5cn[nH]c5c4)n3)cc2)CC1
inhibition [2]: 95.8%

SMILES: Cc1cnc(Nc2ccc(N3CCN(C)CC3)cc2)nc1Nc1ccc2nccnc2c1
inhibition [2]: 74.1%

SMILES: CCN1CCN(c2ccc(Nc3ncc(C)c(Nc4ccc5cn[nH]c5c4)n3)cc2OC)CC1.Cl
half-life [4]: 2.12 h | Activity [5]: Non-Toxic | Cmax [6]: 78.3 ng/mL | Activity [7]: Non-Toxic | Activity [8]: Non-Toxic | Activity [9]: Non-Toxic | Activity [10]: Non-Toxic | Activity [11]: Non-Toxic | Activity [12]: Non-Toxic | Activity [13]: Non-Toxic | AUC(0-inf) [14]: 211 ng·h/mL | Activity [15]: Non-Toxic | Activity [16]: Non-Toxic | Activity [17]: Non-Toxic | Activity [18]: Non-Toxic | Activity [19]: Non-Toxic | Cmax [20]: 75.2 ng/mL | Activity [21]: Non-Toxic | Activity [22]: Non-Toxic | Activity [23]: Non-Toxic | Activity [24]: Non-Toxic | bioavailability [25]: 62.9% | half-life [26]: 2.86 h | AUC(0-inf) [27]: 665 ng·h/mL | Activity [28]: Non-Toxic | Activity [29]: Non-Toxic | Activity [30]: Non-Toxic

SMILES: CN1CCN(c2ccc(Nc3ncc(C(F)(F)F)c(Nc4ccc5cn[nH]c5c4)n3)cc2)CC1
inhibition [2]: 81%

Second part, led by results:

inhibition [2]: 21.2%
SMILES: CN1CCN(c2ccc(Nc3nc(Nc4ccc5cn[nH]c5c4)c4sccc4n3)cc2)CC1

IC50 (U2OS): 0.42 µM | IC50 [3]: 0.0024 µM | inhibition at 40 min, 100 µM (CYP2C19): 45.6% | inhibition at 40 min, 100 µM (CYP2C9): 45.6% | IC50 [1]: 0.0009 µM
SMILES: CCN1CCN(c2ccc(Nc3ncc(C)c(Nc4ccc5cn[nH]c5c4)n3)cc2OC)CC1
IC50 (SAOS-2): 0.37 µM | IC50 (HOS-TE85): 1.03 µM | IC50 (MG-63): 0.44 µM

inhibition [2]: 91%
SMILES: Cc1cnc(Nc2ccc(N3CCN(C)CC3)cc2)nc1Nc1ccc2cccnc2c1

inhibition [2]: 88.9%
SMILES: Cc1cnc(Nc2ccc(N3CCN(C)CC3)cc2)nc1Nc1ccc2c(c1)CCC2

IC50 (U2OS): 0.76 µM | IC50 [1]: 0.0046 µM
SMILES: COc1cc(Nc2ncc(C)c(Nc3ccc4cn[nH]c4c3)n2)ccc1N1CCN(C)CC1
IC50 (SAOS-2): 0.72 µM | IC50 (HOS-TE85): 1.36 µM | IC50 (MG-63): 0.84 µM

— ChEMBL document CHEMBL5154776, “Discovery of Potent and Orally Bioavailable Platelet-Derived Growth Factor Receptor (PDGFR) Inhibitors for the Treatment of Osteosarcoma” (J Med Chem, 2022)
